{"source": "patent US12351574B2", "about": "“Selective ligands for modulation of GIRK channels” (Northeastern University, priority 2018, dated 2025)", "molecular_target": "T1, GIRK1/2(IV-VT) (UniProt P48542+P48549, I97V/V99T)", "T1 construct": "expressed in transfected cells; host or cells: Xenopus laevis oocytes (cRNA injection)", "T1 sequence (P48549 1-501)": "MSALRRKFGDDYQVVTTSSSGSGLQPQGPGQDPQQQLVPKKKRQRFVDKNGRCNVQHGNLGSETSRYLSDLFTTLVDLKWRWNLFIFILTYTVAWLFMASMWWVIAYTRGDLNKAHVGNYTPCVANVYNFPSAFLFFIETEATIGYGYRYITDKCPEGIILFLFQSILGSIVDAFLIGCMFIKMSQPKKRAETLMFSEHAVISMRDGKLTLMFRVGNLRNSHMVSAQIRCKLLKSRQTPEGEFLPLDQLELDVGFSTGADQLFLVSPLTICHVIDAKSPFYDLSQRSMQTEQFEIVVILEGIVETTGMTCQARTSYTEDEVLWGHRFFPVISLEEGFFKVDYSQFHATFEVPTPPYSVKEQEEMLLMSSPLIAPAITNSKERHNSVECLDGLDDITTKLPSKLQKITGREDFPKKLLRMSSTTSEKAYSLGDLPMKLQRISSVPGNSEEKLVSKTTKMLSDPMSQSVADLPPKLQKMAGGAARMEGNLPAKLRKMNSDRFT", "T1 sequence (P48542 1-425 I97V/V99T)": "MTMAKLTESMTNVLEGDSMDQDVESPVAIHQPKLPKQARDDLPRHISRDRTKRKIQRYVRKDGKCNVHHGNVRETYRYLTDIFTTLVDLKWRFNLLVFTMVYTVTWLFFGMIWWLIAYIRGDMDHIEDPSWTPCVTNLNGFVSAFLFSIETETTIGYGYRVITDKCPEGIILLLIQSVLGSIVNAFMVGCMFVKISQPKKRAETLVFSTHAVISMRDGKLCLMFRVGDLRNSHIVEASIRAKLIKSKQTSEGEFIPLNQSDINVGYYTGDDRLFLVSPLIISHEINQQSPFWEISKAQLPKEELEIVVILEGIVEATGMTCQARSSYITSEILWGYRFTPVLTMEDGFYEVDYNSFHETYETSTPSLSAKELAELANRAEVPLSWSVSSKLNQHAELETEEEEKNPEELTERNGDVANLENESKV", "assay": "TEVC in Xenopus oocytes, double mutant GIRK1/2(IV-VT)", "assay_type": "cell-based, human GIRK1, mouse GIRK2", "settings": "GIRK1/2(IV-VT) double mutant", "description": "Molecular biology: For Xenopus oocyte expression, human GIRK1 and human GIRK4 cDNAs were subcloned into pGEMHE. For mammalian expression, human GIRK1 and human GIRK4 cDNAs were subcloned into pcDNA3 and pcDNA3.1/V5-His B, respectively (Invitrogen). Mouse GIRK2 cDNA was subcloned in the dual-function vector, pXoom. Point mutations were introduced using a standard Pfu-based mutagenesis technique according to the QuikChange protocol (Agilent). Mutations were verified by sequencing.\nElectrophysiology of oocytes: Whole-oocyte currents were measured by conventional two-electrode voltage clamp (TEVC) with a GeneClamp 500 amplifier (Axon Instruments). Agarose cushion microelectrodes were filled with 1.5% (w/v) agarose in 3 M KCl and were used with resistances between 0.1 and 1.5 megaohms. […] Barium-sensitive basal currents from both groups, 1) Vehicle, 2) single concentration at 10 μM and 3) multiple concentrations of ML297 or GAT compounds in the presence of HK solution, were assessed at −80 mV using TEVC. Barium-sensitive currents were normalized to average basal current in the vehicle solutions. The HK solution contained the following: 96 mM KCl, 1 mM NaCl, 1 mM MgCl2, 5 mM KOH/HEPES, pH 7.4. The barium solution consisted of HK+10 mM BaCl2. Five to ten oocytes from the same batch (same frog) were recorded for each group, and the experiments were repeated in at least four batches. Data acquisition and analysis were carried out using pClamp9 (Molecular Devices) and OriginPro (Microcal) software.\nTo test these computational predictions, the inventors mutated each or both of the two M1 key wild-type GIRK4 subunit residues to the corresponding GIRK2 residues (GIRK4-V92I, GIRK4-T94V, GIRK4-V92I/T94V or GIRK4-dm) and vice-versa the GIRK2 residues to the corresponding GIRK4 ones (GIRK2-I97V, GIRK2-V99T, GIRK2-I97V/V99T or GIRK2-dm) (FIG. 35). […]", "data": [{"molecule": "Cc1cc(NC(=O)Nc2ccc(Br)s2)n(-c2ccccc2)n1", "note": "[GAT1508, 1-(5-bromothiophen-2-yl)-3-(3-methyl-1-phenyl-1H-pyrazol-5-yl)urea]", "values": [{"measurement": "EC50", "value": "940 ± 150", "unit": "nM"}, {"measurement": "EMAX", "value": "1.68±0.04"}, {"measurement": "Emax", "setting": "read-out: EMAX, % of the control GIRK1/2", "value": 72, "unit": "%"}]}]}
